Reference: the NIST ThermoML archive (doi:10.1021/je700672f)

Experiment: xn = mol fraction of the nth substance listed
Settings: 101 kPa, Liquid

OCCOCCO [diethylene glycol] + O
Settings | mass density [kg/m3] | viscosity [mPa·s]
283.15 K, x1 = 0.0255 | 1019.73 | –
283.15 K, x1 = 0.0565 | 1040.15 | –
283.15 K, x1 = 0.1027 | 1063.34 | –
283.15 K, x1 = 0.1966 | 1091.18 | –
283.15 K, x1 = 0.301 | 1106.34 | –
283.15 K, x1 = 0.3989 | 1113.62 | –
283.15 K, x1 = 0.5006 | 1117.88 | –
283.15 K, x1 = 0.6011 | 1120.39 | –
283.15 K, x1 = 0.7003 | 1121.98 | –
283.15 K, x1 = 0.8051 | 1123.07 | –
283.15 K, x1 = 0.892 | 1123.64 | –
283.15 K, x1 = 1 | 1124.24 | –
288.15 K, x1 = 0.0255 | 1018.61 | –
288.15 K, x1 = 0.0565 | 1038.42 | –
288.15 K, x1 = 0.1027 | 1060.91 | –
288.15 K, x1 = 0.1966 | 1088.01 | –
288.15 K, x1 = 0.301 | 1102.88 | –
288.15 K, x1 = 0.3989 | 1110.06 | –
288.15 K, x1 = 0.5006 | 1114.29 | –
288.15 K, x1 = 0.6011 | 1116.8 | –
288.15 K, x1 = 0.7003 | 1118.39 | –
288.15 K, x1 = 0.8051 | 1119.47 | –
288.15 K, x1 = 0.892 | 1120.05 | –
288.15 K, x1 = 1 | 1120.65 | –
293.15 K, x1 = 0.0255 | 1017.27 | 1.429
293.15 K, x1 = 0.0565 | 1036.53 | 2.223
293.15 K, x1 = 0.1027 | 1058.39 | 3.639
293.15 K, x1 = 0.1966 | 1084.81 | 7.452
293.15 K, x1 = 0.301 | 1099.4 | 12.6
293.15 K, x1 = 0.3989 | 1106.48 | 17.48
293.15 K, x1 = 0.5006 | 1110.68 | 22.22
293.15 K, x1 = 0.6011 | 1113.19 | 26
293.15 K, x1 = 0.7003 | 1114.79 | 29.46
293.15 K, x1 = 0.8051 | 1115.87 | 32.26
293.15 K, x1 = 0.892 | 1116.45 | 34.04
293.15 K, x1 = 1 | 1117.05 | 36.43
298.15 K, x1 = 0.0255 | 1015.72 | –
298.15 K, x1 = 0.0565 | 1034.5 | –
298.15 K, x1 = 0.1027 | 1055.77 | –
298.15 K, x1 = 0.1966 | 1081.56 | –
298.15 K, x1 = 0.301 | 1095.89 | –
298.15 K, x1 = 0.3989 | 1102.89 | –
298.15 K, x1 = 0.5006 | 1107.07 | –
298.15 K, x1 = 0.6011 | 1109.59 | –
298.15 K, x1 = 0.7003 | 1111.19 | –
298.15 K, x1 = 0.8051 | 1112.27 | –
298.15 K, x1 = 0.892 | 1112.86 | –
298.15 K, x1 = 1 | 1113.47 | –
303.15 K, x1 = 0.0255 | 1013.97 | 1.115
303.15 K, x1 = 0.0565 | 1032.33 | 1.674
303.15 K, x1 = 0.1027 | 1053.07 | 2.629
303.15 K, x1 = 0.1966 | 1078.28 | 5.148
303.15 K, x1 = 0.301 | 1092.36 | 8.358
303.15 K, x1 = 0.3989 | 1099.29 | 11.4
303.15 K, x1 = 0.5006 | 1103.45 | 14.15
303.15 K, x1 = 0.6011 | 1105.97 | 16.34
303.15 K, x1 = 0.7003 | 1107.58 | 18.48
303.15 K, x1 = 0.8051 | 1108.67 | 20
303.15 K, x1 = 0.892 | 1109.27 | 21.19
303.15 K, x1 = 1 | 1109.88 | 22.09
308.15 K, x1 = 0.0255 | 1011.83 | –
308.15 K, x1 = 0.0565 | 1030.02 | –
308.15 K, x1 = 0.1027 | 1050.27 | –
308.15 K, x1 = 0.1966 | 1074.94 | –
308.15 K, x1 = 0.301 | 1088.8 | –
308.15 K, x1 = 0.3989 | 1095.67 | –
308.15 K, x1 = 0.5006 | 1099.82 | –
308.15 K, x1 = 0.6011 | 1102.36 | –
308.15 K, x1 = 0.7003 | 1103.97 | –
308.15 K, x1 = 0.8051 | 1105.06 | –
308.15 K, x1 = 0.892 | 1105.68 | –
308.15 K, x1 = 1 | 1106.29 | –
313.15 K, x1 = 0.0255 | 1009.99 | 0.959
313.15 K, x1 = 0.0565 | 1027.57 | 1.298
313.15 K, x1 = 0.1027 | 1047.39 | 1.984
313.15 K, x1 = 0.1966 | 1071.56 | 3.716
313.15 K, x1 = 0.301 | 1085.22 | 5.847
313.15 K, x1 = 0.3989 | 1092.03 | 7.761
313.15 K, x1 = 0.5006 | 1096.18 | 9.506
313.15 K, x1 = 0.6011 | 1098.73 | 10.93
313.15 K, x1 = 0.7003 | 1100.35 | 12.22
313.15 K, x1 = 0.8051 | 1101.45 | 13.2
313.15 K, x1 = 0.892 | 1102.09 | 13.93
313.15 K, x1 = 1 | 1102.7 | 14.56
318.15 K, x1 = 0.0255 | 1007.73 | –
318.15 K, x1 = 0.0565 | 1025.01 | –
318.15 K, x1 = 0.1027 | 1044.41 | –
318.15 K, x1 = 0.1966 | 1068.13 | –
318.15 K, x1 = 0.301 | 1081.61 | –
318.15 K, x1 = 0.3989 | 1088.37 | –
318.15 K, x1 = 0.5006 | 1092.53 | –
318.15 K, x1 = 0.6011 | 1095.08 | –
318.15 K, x1 = 0.7003 | 1096.71 | –
318.15 K, x1 = 0.8051 | 1097.83 | –
318.15 K, x1 = 0.892 | 1098.49 | –
318.15 K, x1 = 1 | 1099.11 | –
323.15 K, x1 = 0.0255 | 1005.37 | 0.754
323.15 K, x1 = 0.0565 | 1022.33 | 1.031
323.15 K, x1 = 0.1027 | 1041.36 | 1.545
323.15 K, x1 = 0.1966 | 1064.65 | 2.783
323.15 K, x1 = 0.301 | 1077.97 | 4.231
323.15 K, x1 = 0.3989 | 1084.69 | 5.509
323.15 K, x1 = 0.5006 | 1088.85 | 6.694
323.15 K, x1 = 0.6011 | 1091.42 | 7.635
323.15 K, x1 = 0.7003 | 1093.07 | 8.477
323.15 K, x1 = 0.8051 | 1094.21 | 9.115
323.15 K, x1 = 0.892 | 1094.88 | 9.635
323.15 K, x1 = 1 | 1095.51 | 10.03
328.15 K, x1 = 0.0255 | 1002.86 | –
328.15 K, x1 = 0.0565 | 1019.53 | –
328.15 K, x1 = 0.1027 | 1038.21 | –
328.15 K, x1 = 0.1966 | 1061.13 | –
328.15 K, x1 = 0.301 | 1074.29 | –
328.15 K, x1 = 0.3989 | 1080.98 | –
328.15 K, x1 = 0.5006 | 1085.16 | –
328.15 K, x1 = 0.6011 | 1087.74 | –
328.15 K, x1 = 0.7003 | 1089.41 | –
328.15 K, x1 = 0.8051 | 1090.57 | –
328.15 K, x1 = 0.892 | 1091.26 | –
328.15 K, x1 = 1 | 1091.91 | –
333.15 K, x1 = 0.0255 | 1000.22 | 0.62
333.15 K, x1 = 0.0565 | 1016.62 | 0.849
333.15 K, x1 = 0.1027 | 1034.99 | 1.236
333.15 K, x1 = 0.1966 | 1057.55 | 2.147
333.15 K, x1 = 0.301 | 1070.58 | 3.202
333.15 K, x1 = 0.3989 | 1077.25 | 4.103
333.15 K, x1 = 0.5006 | 1081.43 | 4.917
333.15 K, x1 = 0.6011 | 1084.04 | 5.534
333.15 K, x1 = 0.7003 | 1085.74 | 6.12
333.15 K, x1 = 0.8051 | 1086.93 | 6.492
333.15 K, x1 = 0.892 | 1087.63 | 6.874
333.15 K, x1 = 1 | 1088.3 | 7.22
338.15 K, x1 = 0.0255 | 997.46 | –
338.15 K, x1 = 0.0565 | 1013.61 | –
338.15 K, x1 = 0.1027 | 1031.68 | –
338.15 K, x1 = 0.1966 | 1053.92 | –
338.15 K, x1 = 0.301 | 1066.84 | –
338.15 K, x1 = 0.3989 | 1073.49 | –
338.15 K, x1 = 0.5006 | 1077.69 | –
338.15 K, x1 = 0.6011 | 1080.33 | –
338.15 K, x1 = 0.7003 | 1082.06 | –
338.15 K, x1 = 0.8051 | 1083.27 | –
338.15 K, x1 = 0.892 | 1083.99 | –
338.15 K, x1 = 1 | 1084.68 | –
343.15 K, x1 = 0.0255 | 994.57 | 0.527
343.15 K, x1 = 0.0565 | 1010.51 | 0.71
343.15 K, x1 = 0.1027 | 1028.29 | 1.011
343.15 K, x1 = 0.1966 | 1050.24 | 1.703
343.15 K, x1 = 0.301 | 1063.06 | 2.514
343.15 K, x1 = 0.3989 | 1069.69 | 3.15
343.15 K, x1 = 0.5006 | 1073.93 | 3.731
343.15 K, x1 = 0.6011 | 1076.59 | 4.217
343.15 K, x1 = 0.7003 | 1078.36 | 4.617
343.15 K, x1 = 0.8051 | 1079.6 | 4.863
343.15 K, x1 = 0.892 | 1080.34 | 5.121
343.15 K, x1 = 1 | 1081.05 | 5.369
348.15 K, x1 = 0.0255 | 991.57 | –
348.15 K, x1 = 0.0565 | 1007.27 | –
348.15 K, x1 = 0.1027 | 1024.84 | –
348.15 K, x1 = 0.1966 | 1046.51 | –
348.15 K, x1 = 0.301 | 1059.24 | –
348.15 K, x1 = 0.3989 | 1065.88 | –
348.15 K, x1 = 0.5006 | 1070.14 | –
348.15 K, x1 = 0.6011 | 1072.84 | –
348.15 K, x1 = 0.7003 | 1074.63 | –
348.15 K, x1 = 0.8051 | 1075.91 | –
348.15 K, x1 = 0.892 | 1076.67 | –
348.15 K, x1 = 1 | 1077.4 | –
353.15 K, x1 = 0.0255 | 988.5 | 0.465
353.15 K, x1 = 0.0565 | 1004.07 | 0.606
353.15 K, x1 = 0.1027 | 1021.3 | 0.848
353.15 K, x1 = 0.1966 | 1042.72 | 1.392
353.15 K, x1 = 0.301 | 1055.38 | 2.043
353.15 K, x1 = 0.3989 | 1062.02 | 2.502
353.15 K, x1 = 0.5006 | 1066.32 | 2.942
353.15 K, x1 = 0.6011 | 1069.05 | 3.283
353.15 K, x1 = 0.7003 | 1070.89 | 3.593
353.15 K, x1 = 0.8051 | 1072.2 | 3.818
353.15 K, x1 = 0.892 | 1072.99 | 4.024
353.15 K, x1 = 1 | 1073.74 | 4.139
